Consider 8 compounds from patent publication US20260248828A1, “Pyropheophorbide Analogues for Therapy and Diagnosis” (RMW Cho Group Limited, priority 2023, published 2026).

Like-named read-outs stand apart in the source and are kept apart here.

For orientation: IC90 means the point of the concentration-response curve where the effect stands at 90%. Higher therefore signals weaker potency.

Data set [1] deals with SKOV3 ovarian cancer cells.
Data set [2] has as its system SKOV3 ovarian cancer cells. The data set can be described thus: Phototoxicity in SKOV3 cells after 660 nm light activation (AlamarBlue viability). Particulars: 24 h uptake, 660 nm laser or LED 50 mW/cm^2 for 5 mins (15 J/cm^2), viability 24 h after activation. It counts as cell-based, Human. The method, then: Samples were stored at 4° C. protected from light.
All data are shown as mean±SD (where appropriate).
To test for phototoxicity, cells incubated with pyropheophorbide a analogues (0-20 μM in DMSO) had culture media replaced after 24 hours (as above) and were then exposed to a 660 nm laser (Invion) or light-emitting diode (LED) panel (Invion) with optical power density at 50 mW/cm^2 for 5 mins (total 15 J/cm^2). Laser and LED exposure induce an equivalent response in relation to phototoxicity. Following activation, cells were cultured for a further 24 hours. Media was then replaced with fresh media containing AlamarBlue, and % viable cells remaining assessed as above. Controls included cells treated with pyropheophorbide a analogues but not activated by laser light; cells without pyropheophorbide a analogue treatment but with laser light; and untreated controls. All measurements were made in quadruplicate.
To evaluate the therapeutic potential of pyropheophorbide a analogues, the therapeutic index (TI) was calculated. TI provides a quantitative measurement to describe relative drug safety, by comparing the drug concentration required for desirable effects versus the concentration resulting in undesirable off-target toxicity. TI was calculated using phototoxicity IC90 vs dark toxicity IC10.
In general terms: Alamar Blue is a resazurin reagent that responds to reducing activity.

Data set [3] deals with SKOV3 ovarian cancer cells. Kind of data set: Inherent cytotoxicity (dark toxicity) in SKOV3 cells without light (AlamarBlue viability). Particulars: 24 h incubation, no light activation.
Protocol: Photosensitizers (e.g. pyropheophorbide a analogue, chlorin e4 disodium (provided by Advanced Molecular Technologies, Scoresby) or Talaporfin sodium (purchased from Focus Bioscience cat #HY-16477-5MG)) were resuspended in 100% dimethylsulfoxide (DMSO) at a concentration of 5.5 mM. Samples were stored at 4° C. protected from light.
For in vitro experiments, photosensitizers (stock solution 5.5 mM in 100% DMSO) were diluted 1:100 in concentrated excipient solution (final 55 M photosensitizer in 10% w/v Kollidon-12, 42.4% w/v polysorbate 80, 0.6% w/v citric acid anhydrous, 40% w/v ethanol, 1.0% DMSO). Serial dilutions were prepared in cell culture media (Dulbecco's Modified Eagle Medium/Nutrient Mixture F-12 (DMEM/F-12)) supplemented with 10% v/v Fetal Bovine Serum, 100 U/mL penicillin, 100 μg/mL streptomycin and the same excipient solution at a constant 1:55 dilution.
Human ovarian cancer cell line SKOV3 (ATCC #HTB-77) was maintained in Dulbecco's Modified Eagle Medium/Nutrient Mixture F-12 (DMEM/F-12), supplemented with 10% v/v Fetal Bovine Serum, 100 U/mL penicillin and 100 μg/mL streptomycin. Monolayer cultures were grown in a humidified incubator at 37° C. with 5% CO2. Once cells had reached ~80% confluence, spent media was replaced with media containing photosensitizer at the required concentration and cells were incubated for the desired period of time to allow photosensitizer uptake.
Spectral absorbance and viability measurements were normalized in the range 0-100%, with a minimum of 0 and a maximum value determined from the dataset. Dose response was determined using a sigmoidal four-point non-linear regression with variable slope, and IC10 or IC90 calculated for each compound.
SKOV3 cells were seeded in 96-well black wall plates (Greiner #655090) at a cell density of 5000 cells in 100 μl culture medium per well. On reaching ~60% confluence, media was aspirated and replaced with fresh media containing the relevant pyropheophorbide a analogue from 0-100 μM in DMSO. Cells were incubated for a further 24 hours, allowing uptake of pyropheophorbide a analogues.
To test for inherent cytotoxicity (i.e. “dark toxicity”) of the pyropheophorbide a analogues, the culture media was replaced after 24 hours with fresh media containing 10% (v/v) AlamarBlue Cell Viability Reagent (ThermoFisher) and cells incubated at 37° C. for 6 hours. Untreated cells were used as a control. Fluorescence (Ex 555 nm/Em 596 nm) was measured using a Cytation 3 Cell Imaging Multi-Mode Reader (Biotek) or a CLARIOstar Plus Microplate Readear (BMG Labtech), and cytotoxicity assessed according to the % viable cells remaining. All measurements were made in quadruplicate.
The phototoxicity and inherent cytotoxicity (i.e. “dark toxicity”) of pyropheophorbide a analogues were assessed as previously using SKOV3 ovarian cancer cells. For comparative purposes, pyropheophorbide a analogues were compared against chlorin e4 disodium and Talaporfin sodium, a clinically approved photosensitizer used in the photodynamic treatment of lung cancers. Phototoxicity IC90 values and dark toxicity IC10 values were calculated using a log[inhibitor]-vs normalized response dose curve with variable slope, using the formula Y=100/(1+(IC90/X)^HillSlope (phototoxicity IC90)) or Y=100/(1+(IC10/X)^HillSlope (dark toxicity IC10)).
The mark [4] stands for this setting: Homo sapiens, SK-OV-3, light or radiation study.

On to `C=Cc1c(C)c2cc3nc(c(C)c4[nH]c(cc5nc(cc1[nH]2)C(C)=C5CC)c(C)c4C(=O)O)[C@@H](CCC(=O)O)[C@@H]3C` [Chlorin e4 disodium, chlorin e4 disodium, reference compound], for which the “Dark toxicity μM (IC10)” value in data set [1] is 40.23 µM. Moreover, the 90% effect concentration (IC90) in data set [2] stood at 21.3 µM.
Regarding `CCC1=C(C)c2cc3[nH]c(cc4nc(c5c6[nH]c(cc1n2)c(C)c6C(=O)C5)[C@@H](CCC(=O)OC)[C@@H]4C)c(C)c3CO` [Comparative Compound 1, pyropheophorbide a 9-hydroxymethyl methyl ester, reference compound], in data set [1] (human, 24 h), the “Dark toxicity μM (IC10)” value was determined as 15.500 µM. For the same compound, it took 0.458 µM to reach the 90% level in data set [2] (setting [4]) (IC90).
Regarding `CCC1=C(C)c2cc3[nH]c(cc4nc(c5c6[nH]c(cc1n2)c(C)c6C(=O)C5)[C@@H](CCC(=O)OC)[C@@H]4C)c(C)c3COC(=O)NCCC[P+](c1ccccc1)(c1ccccc1)c1ccccc1` [Compound 1, pyropheophorbide a methyl ester 9-(N-(3-triphenylphosphoniumpropyl)bromide)carbamate], the “Dark toxicity μM (IC10)” value in data set [3] came out at 3.088 µM. The same compound had a 90% effect concentration (IC90) in data set [2] (setting [4]) of 0.038 µM.
Take `CCC1=C(C)c2cc3[nH]c(cc4nc(c5c6[nH]c(cc1n2)c(C)c6C(=O)C5)[C@@H](CCC(=O)OC)[C@@H]4C)c(C)c3COC(=O)CCCC[P+](c1ccccc1)(c1ccccc1)c1ccccc1` [Compound 2, pyropheophorbide a methyl ester 9-(oxopentyl)triphenylphosphonium bromide]: the “Dark toxicity μM (IC10)” value in data set [1] (human, 24 h) was 0.415 µM. The same compound displayed an IC90 in data set [2] (setting [4]) of 0.002 µM.
Consider `CCC1=C(C)c2cc3[nH]c(cc4nc(c5c6[nH]c(cc1n2)c(C)c6C(=O)C5)[C@@H](CCC(=O)OC)[C@@H]4C)c(C)c3CN(C)C(=O)CCCC[P+](c1ccccc1)(c1ccccc1)c1ccccc1` [Compound 3, pyropheophorbide a 9-N-(methyl-5-triphenylphosphonium bromidepentanamide) methyl ester], for which the “Dark toxicity μM (IC10)” value in data set [1] (human, 24 h) was found to be 24.00 µM. This compound also showed a concentration for an effect of 90% (IC90) in data set [2] (setting [4]) of 0.012 µM.
For the compound `CCC1=C(C)c2cc3[nH]c(cc4nc(c5c6[nH]c(cc1n2)c(C)c6C(=O)C5)[C@@H](CCC(=O)OC)[C@@H]4C)c(C)c3CNCCC[P+](c1ccccc1)(c1ccccc1)c1ccccc1` [Compound 4, pyropheophorbide a 9-(N-3-triphenylphosphoniumpropyl bromide)aminomethyl methyl ester], the “Dark toxicity μM (IC10)” value in data set [3] amounted to 50.90 µM. In data set [2] (setting [4]), it took 0.048 µM to reach the 90% level (IC90).
The matching figures for `CCOC(=O)N(CCC[P+](c1ccccc1)(c1ccccc1)c1ccccc1)Cc1c(C)c2cc3nc(c4c5[nH]c(cc6nc(cc1[nH]2)C(C)=C6CC)c(C)c5C(=O)C4)[C@@H](CCC(=O)OC)[C@@H]3C` [Compound 5, pyropheophorbide a 9-(N-3-triphenylphosphoniumpropyl bromide ethylcarbamate)aminomethyl methyl ester]: 48.97 µM and 0.006 µM.
Consider `C=Cc1c(C)c2cc3nc(c(CC(=O)N[C@@H](CC(=O)O)C(=O)O)c4[nH]c(cc5nc(cc1[nH]2)C(C)=C5CC)c(C)c4C(=O)O)[C@@H](CCC(=O)O)[C@@H]3C` [Talaporfin sodium], for which, in data set [1] (human, 24 h), the “Dark toxicity μM (IC10)” value stood at 11.10 µM.
